Data taken from ChEMBL document CHEMBL1154071, “Studies towards the identification of putative bioactive conformation of potent vasodilator arylidene N-acylhydrazone derivatives” (Eur J Med Chem, 2009).
Calls of active or inactive are those of the source. The calls are words filed in the database; no cut-off is given here.

Experiments:
Aorta [1] = test: Vasorelaxant activity in endothelium-denuded Wistar rat thoracic aortic ring assessed as inhibition of phenylephrine-induced contraction; type: functional, tissue-based
Aorta [2] = test: Vasorelaxant activity in endothelium-intact Wistar rat thoracic aortic ring assessed as inhibition of phenylephrine-induced contraction; type: functional, tissue-based
Aorta [3] = test: Vasorelaxant activity in endothelium-denuded Wistar rat thoracic aortic ring assessed as inhibition of phenylephrine-induced contraction at 200 uM; type: functional
Aorta [4] = test: Vasorelaxant activity in endothelium-intact Wistar rat thoracic aortic ring assessed as inhibition of phenylephrine-induced contraction at 200 uM; type: functional
[5] = target: T1, 3',5'-cyclic-AMP phosphodiesterase 4B (Homo sapiens, UniProt Q07343); test: Inhibition of PDE4B
T1 sequence (Q07343 whole entry): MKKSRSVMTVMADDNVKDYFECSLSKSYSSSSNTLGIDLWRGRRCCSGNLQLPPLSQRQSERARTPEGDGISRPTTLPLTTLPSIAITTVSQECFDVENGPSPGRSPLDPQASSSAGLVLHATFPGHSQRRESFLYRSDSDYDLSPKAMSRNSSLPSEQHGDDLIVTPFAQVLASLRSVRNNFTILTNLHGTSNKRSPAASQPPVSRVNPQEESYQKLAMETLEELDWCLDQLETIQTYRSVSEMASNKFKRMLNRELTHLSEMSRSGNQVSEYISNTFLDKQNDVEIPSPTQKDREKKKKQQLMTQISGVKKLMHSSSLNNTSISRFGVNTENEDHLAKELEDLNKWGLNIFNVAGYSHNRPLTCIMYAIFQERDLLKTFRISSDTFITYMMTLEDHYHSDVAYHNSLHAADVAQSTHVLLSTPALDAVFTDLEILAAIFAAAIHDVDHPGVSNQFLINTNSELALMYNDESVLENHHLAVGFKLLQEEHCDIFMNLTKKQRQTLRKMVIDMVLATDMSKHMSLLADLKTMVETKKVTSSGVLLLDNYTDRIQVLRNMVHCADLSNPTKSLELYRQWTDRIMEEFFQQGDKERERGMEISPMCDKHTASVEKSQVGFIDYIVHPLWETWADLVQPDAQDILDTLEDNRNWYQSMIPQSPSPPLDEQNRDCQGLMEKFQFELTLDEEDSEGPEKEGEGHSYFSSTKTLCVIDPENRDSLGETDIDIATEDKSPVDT

[6] = target: cGMP-dependent 3',5'-cyclic phosphodiesterase (Homo sapiens) (UniProt O00408); test: Inhibition of PDE2A up to 30 uM
cGMP-dependent 3',5'-cyclic phosphodiesterase (Homo sapiens), sequence (O00408 whole entry): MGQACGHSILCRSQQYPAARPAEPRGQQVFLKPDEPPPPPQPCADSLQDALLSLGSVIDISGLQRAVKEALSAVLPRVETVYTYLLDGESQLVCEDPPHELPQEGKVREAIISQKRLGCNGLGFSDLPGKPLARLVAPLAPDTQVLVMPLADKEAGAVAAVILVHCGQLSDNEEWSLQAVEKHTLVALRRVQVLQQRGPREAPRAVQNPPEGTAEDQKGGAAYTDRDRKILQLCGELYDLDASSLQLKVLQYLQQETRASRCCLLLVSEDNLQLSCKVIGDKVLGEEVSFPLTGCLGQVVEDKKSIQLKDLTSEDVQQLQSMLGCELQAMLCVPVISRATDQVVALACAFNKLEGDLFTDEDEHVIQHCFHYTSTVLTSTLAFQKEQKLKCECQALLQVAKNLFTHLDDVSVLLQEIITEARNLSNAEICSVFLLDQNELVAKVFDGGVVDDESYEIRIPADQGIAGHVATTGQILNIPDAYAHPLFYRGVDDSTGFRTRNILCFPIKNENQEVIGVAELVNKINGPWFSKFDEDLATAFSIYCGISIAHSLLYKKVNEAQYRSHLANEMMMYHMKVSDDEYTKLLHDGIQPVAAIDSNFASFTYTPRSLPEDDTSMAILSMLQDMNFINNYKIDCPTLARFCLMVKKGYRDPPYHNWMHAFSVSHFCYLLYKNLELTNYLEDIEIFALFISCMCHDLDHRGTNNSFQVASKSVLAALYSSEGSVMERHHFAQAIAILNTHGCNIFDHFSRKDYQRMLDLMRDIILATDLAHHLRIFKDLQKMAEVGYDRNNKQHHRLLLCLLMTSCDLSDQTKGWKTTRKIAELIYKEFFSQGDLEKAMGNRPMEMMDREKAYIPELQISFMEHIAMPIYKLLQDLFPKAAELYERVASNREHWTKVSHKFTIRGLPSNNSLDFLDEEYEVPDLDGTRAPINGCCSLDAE

[7] = target: cGMP-specific 3',5'-cyclic phosphodiesterase (Homo sapiens) (UniProt O76074); test: Inhibition of PDE5 up to 30 uM
Aorta [8] = test: Vasorelaxant activity in endothelium-intact Wistar rat thoracic aortic ring assessed as complete inhibition of phenylephrine-induced contraction at 20 uM in intact endothelium; type: functional, tissue-based
Aorta [9] = test: Vasorelaxant activity in endothelium-intact Wistar rat thoracic aortic ring assessed as inhibition of phenylephrine-induced contraction at 500 uM; type: functional
Aorta [10] = test: Vasorelaxant activity in endothelium-denuded Wistar rat thoracic aortic ring assessed as inhibition of phenylephrine-induced contraction at 500 uM; type: functional
[11] = target: T1, 3',5'-cyclic-AMP phosphodiesterase 4B; test: Inhibition of PDE4B up to 30 uM
Aorta [12] = test: Vasorelaxant activity in endothelium-denuded Wistar rat thoracic aortic ring assessed as inhibition of phenylephrine-induced contraction at 100 uM; type: functional

**Q.** How did the IC50 (Aorta [1]) turn out when `CN(/N=C/c1ccc[nH]1)C(=O)c1ccc2c(c1)OCO2` was run?
**A.** 17.8 µM

**Q.** What about the IC50 (Aorta [2]) of the same molecule?
**A.** 3.1 µM

**Q.** How did the inhibition at 200 µM (Aorta [3]) turn out when `O=C(N/N=C/c1ccc[nH]1)c1ccc2c(c1)OCO2` was run?
**A.** < 50%

**Q.** And the inhibition at 200 µM (Aorta [4])?
**A.** < 50%

**Q.** Which results are given for `CN(/N=C/c1cccs1)C(=O)c1ccc2c(c1)OCO2`?
**A.** IC50 (Aorta [1]): 18.5 µM; Activity (Aorta [2]): Dose-dependent effect; IC50 (Aorta [2]): 10.2 µM; IC50 [5]: > 30 µM; Activity [6]: inactive; Activity [7]: inactive

**Q.** Which results are given for `CN(/N=C/c1ccccc1)C(=O)c1ccc2c(c1)OCO2`?
**A.** IC50 (Aorta [1]): 11.1 µM; Activity (Aorta [8]): Active; IC50 (Aorta [2]): 3.5 µM

**Q.** What does the source list for `O=C(N/N=C/c1ccco1)c1ccc2c(c1)OCO2`?
**A.** inhibition at 500 µM (Aorta [9]): < 50%; inhibition at 500 µM (Aorta [10]): < 50%

**Q.** Which results are given for `O=C(N/N=C/c1cccs1)c1ccc2c(c1)OCO2`?
**A.** Activity [11]: inactive; Activity (Aorta [2]): Dose-dependent effect; IC50 (Aorta [2]): 74 µM; Activity [6]: inactive; inhibition at 100 µM (Aorta [12]): < 50%; Activity [7]: inactive

**Q.** Which results are given for `CN(/N=C/c1ccco1)C(=O)c1ccc2c(c1)OCO2`?
**A.** IC50 (Aorta [1]): 15.7 µM; IC50 (Aorta [2]): 40.8 µM

**Q.** For `O=C(N/N=C/c1ccccc1)c1ccc2c(c1)OCO2`, which inhibition at 500 µM (Aorta [9]) is on record?
**A.** 70.7%

**Q.** And the inhibition at 500 µM (Aorta [10])?
**A.** < 50%

**Q.** What about the IC50 (Aorta [2]) of the same molecule?
**A.** 81 µM
